pIC50: −log10 of the molar value.
Each compound was assayed against T1, human glycine transporter-2 (GlyT2) (Homo sapiens, UniProt Q9Y345) (assay: GlyT2 inhibitory activity: inhibition of [14C]-glycine uptake in COS-7 cells transfected with human GlyT2). Settings: Cos-7 cells stably transfected with human GlyT2; 20 μM 14C-glycine, 2 h at 37° C.
T1 construct: The entire coding region of the human GlyT2 cDNA was cloned into the mammalian expression vector pCINeo; expressed in transfected cells; host or cells: Cos-7 cells (African green monkey kidney), stably transfected, vector pCINeo, G418 selection
T1 sequence (Q9Y345 1-797): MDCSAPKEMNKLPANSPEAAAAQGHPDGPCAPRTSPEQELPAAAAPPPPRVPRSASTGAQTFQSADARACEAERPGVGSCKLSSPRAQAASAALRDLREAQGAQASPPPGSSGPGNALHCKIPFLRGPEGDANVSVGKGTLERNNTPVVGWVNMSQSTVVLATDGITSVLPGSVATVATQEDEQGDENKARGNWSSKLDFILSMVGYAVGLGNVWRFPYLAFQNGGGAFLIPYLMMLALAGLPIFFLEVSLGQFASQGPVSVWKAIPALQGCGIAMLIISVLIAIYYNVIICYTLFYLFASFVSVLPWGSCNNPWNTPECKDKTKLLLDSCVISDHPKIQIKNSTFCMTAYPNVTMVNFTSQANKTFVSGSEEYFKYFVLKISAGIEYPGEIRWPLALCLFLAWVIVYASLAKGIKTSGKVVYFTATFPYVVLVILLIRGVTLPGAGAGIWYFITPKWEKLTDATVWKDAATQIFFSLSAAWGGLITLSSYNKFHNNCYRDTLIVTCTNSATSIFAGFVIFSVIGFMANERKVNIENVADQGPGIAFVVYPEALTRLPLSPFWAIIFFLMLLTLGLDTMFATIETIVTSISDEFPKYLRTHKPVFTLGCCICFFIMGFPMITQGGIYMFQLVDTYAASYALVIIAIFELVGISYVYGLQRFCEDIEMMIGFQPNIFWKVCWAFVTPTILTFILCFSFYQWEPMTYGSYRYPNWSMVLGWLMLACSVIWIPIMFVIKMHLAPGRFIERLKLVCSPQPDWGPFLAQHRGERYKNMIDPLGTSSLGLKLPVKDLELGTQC
Type: cell-based
Protocol: GlyT2 antagonist activity of representative compounds of the invention was determined in accordance with the assay described in the Examples and by measuring the ability of compounds to inhibit the uptake of [^14C]-glycine in COS-7 cells transfected with the human glycine transporter-2 (GlyT2). The GlyT2 antagonist activities of these representative compounds are set forth hereinafter in Table 1.
Cos-7 cells (African green monkey, kidney) from American Type Culture Collection were grown in DMEM supplemented with 10% fetal bovine serum. The entire coding region of the human GlyT2 cDNA was cloned into the mammalian expression vector pCINeo, and then stably transfected into Cos-7 cells. Transfection was performed essentially as described by T. W. Lovenberg et al. (Mol. Pharmacol. 1999, 55:1101-1107). Cells are grown to 70-80% confluence, removed from the plate with trypsin, and pelleted in a clinical centrifuge. The pellet is resuspended in 400 μL complete medium and transferred to an electroporation cuvette with a 0.4 cm gap between the electrodes (Bio-Rad, 165-2088). One microgram of supercoiled GlyT2 cDNA is added to the cells, and the suspension is mixed. The voltage for the electroporation is set at 0.25 kV, and the capacitance is set at 960 μF. After electroporation, the cuvette contents are diluted to 10 mL with complete medium, and 0.5 mL, 1.0 mL, 2.0 mL and remainder (−6.5 mL) portions are plated onto four 10-cm dishes. The cells are incubated 24 h before adding 600 μg/mL G418. Colonies that survive selection are isolated and tested for GlyT2 expression.
The day before the assay, the GlyT2 expressing cells were plated into 96-well scintillating microplates (Amersham, RPNQ 0160) at a density of approximately 20,000 cells per well. Cells were grown overnight at 37° C. in 5% CO2 and then washed once with 37° C. HEPES buffered saline (HBS: 150 mM NaCl, 20 mM HEPES, 1 mM CaCl2, 10 mM glucose, 5 mM KCl, 1 mM MgCl2; pH 7.4). Eighty microliters of 37° C. HBS was subsequently added to each well. Test solutions of GlyT2 inhibitors were prepared in HBS from DMSO stock solutions, and 5 μL of test solution was added to each test well. Total transport and non-specific background were determined by adding 5 μL HBS or 5 μL 2 M glycine, respectively, to the appropriate control wells. Plates were then left at room temperature for 5 min before the addition of 20 μL of 100 μM ^14C-glycine (NEN, NEC 048H) to each well for a final concentration of 20 μM. Plates were incubated for 2 h at 37° C. with 5% CO2. After 2 h the reaction mixtures were removed by aspiration, and the plates were washed once with ice-cold HBS. Plates were sealed with TopSeal (Packard, 6005185) and counted on a Packard TopCount® scintillation counter.

| SMILES | pIC50 |
| --- | --- |
| CC(C)Oc1ccccc1NCCNCc1cccc(C(=O)N2CCCCC2)c1 [Example 1, (3-{[2-(2-Isopropoxy-phenylamino)-ethylamino]-methyl}-phenyl)-piperidin-1-yl-methanone] | 6.40 |
| CC(C)Oc1ccccc1NCCCNCc1cccc(C(=O)N2CCCCC2)c1 [Example 2, (3-{[3-(2-Isopropoxy-phenylamino)-propylamino]-methyl}-phenyl)-piperidin-1-yl-methanone] | 5.40 |
| O=C(c1cccc(CNCCNc2ccccc2)c1)N1CCCCC1 [Example 3, {3-[(2-Phenylamino-ethylamino)-methyl]-phenyl}-piperidin-1-yl-methanone] | < 5.00 |
| O=C(c1cccc(CNCCNc2ccccc2O)c1)N1CCCCC1 [Example 4, (3-{[2-(2-Hydroxy-phenylamino)-ethylamino]-methyl}-phenyl)-piperidin-1-yl-methanone] | 4.70 |
| COc1ccccc1NCCNCc1cccc(C(=O)N2CCCCC2)c1 [Example 5, (3-{[2-(2-Methoxy-phenylamino)-ethylamino]-methyl}-phenyl)-piperidin-1-yl-methanone] | 5.60 |
| CCC(CC)Oc1ccccc1NCCNCc1cccc(C(=O)N2CCCCC2)c1 [Example 6, [3-({2-[2-(1-Ethyl-propoxy)-phenylamino]-ethylamino}-methyl)-phenyl]-piperidin-1-yl-methanone] | 5.52 |
| O=C(c1cccc(CNCCNc2ccccc2OC2CCCC2)c1)N1CCCCC1 [Example 7, (3-{[2-(2-Cyclopentyloxy-phenylamino)-ethylamino]-methyl}-phenyl)-piperidin-1-yl-methanone] | 5.92 |
| O=C(c1cccc(CNCCNc2ccccc2Oc2ccccc2)c1)N1CCCCC1 [Example 8, (3-{[2-(2-Phenoxy-phenylamino)-ethylamino]-methyl}-phenyl)-piperidin-1-yl-methanone] | 5.52 |
| COc1cccc(NCCNCc2cccc(C(=O)N3CCCCC3)c2)c1 [Example 9, (3-{[2-(3-Methoxy-phenylamino)-ethylamino]-methyl}-phenyl)-piperidin-1-yl-methanone] | 6.10 |
| CC(C)Oc1cccc(NCCNCc2cccc(C(=O)N3CCCCC3)c2)c1 [Example 10, (3-{[2-(3-Isopropoxy-phenylamino)-ethylamino]-methyl}-phenyl)-piperidin-1-yl-methanone] | 6.00 |
| O=C(c1cccc(CNCCNc2ccccc2[N+](=O)[O-])c1)N1CCCCC1 [Example 11, (3-{[2-(2-Nitro-phenylamino)-ethylamino]-methyl}-phenyl)-piperidin-1-yl-methanone] | 5.30 |
| Nc1ccccc1NCCNCc1cccc(C(=O)N2CCCCC2)c1 [Example 12, (3-{[2-(2-Amino-phenylamino)-ethylamino]-methyl}-phenyl)-piperidin-1-yl-methanone] | < 5.00 |
| CC(C)Nc1ccccc1NCCNCc1cccc(C(=O)N2CCCCC2)c1 [Example 13, (3-{[2-(2-Isopropylamino-phenylamino)-ethylamino]-methyl}-phenyl)-piperidin-1-yl-methanone] | 6.26 |
| CS(=O)(=O)Nc1ccccc1NCCNCc1cccc(C(=O)N2CCCCC2)c1 [Example 14, N-(2-{2-[3-(Piperidine-1-carbonyl)-benzylamino]-ethylamino}-phenyl)methanesulfonamide] | 5.51 |
| O=C(Nc1ccccc1)Nc1ccccc1NCCNCc1cccc(C(=O)N2CCCCC2)c1 [Example 15, 1-Phenyl-3-(2-{2-[3-(piperidine-1-carbonyl)-benzylamino]-ethylamino}-phenyl)-urea] | < 5.00 |
| O=C(NCc1ccccc1)Nc1ccccc1NCCNCc1cccc(C(=O)N2CCCCC2)c1 [Example 16, 1-Benzyl-3-(2-{2-[3-(piperidine-1-carbonyl)-benzylamino]-ethylamino}-phenyl)-urea] | 5.51 |
| O=C(c1cccc(CNCCNc2ccccc2Br)c1)N1CCCCC1 [Example 17, (3-{[2-(2-Bromo-phenylamino)-ethylamino]-methyl}-phenyl)-piperidin-1-yl-methanone] | 6.00 |
| O=C(c1cccc(CNCCNc2cccc(Br)c2)c1)N1CCCCC1 [Example 18, (3-{[2-(3-Bromo-phenylamino)-ethylamino]-methyl}-phenyl)-piperidin-1-yl-methanone] | 5.51 |
| O=C(c1cccc(CNCCNc2ccccc2Cl)c1)N1CCCCC1 [Example 19, (3-{[2-(2-Chloro-phenylamino)-ethylamino]-methyl}-phenyl)-piperidin-1-yl-methanone] | 5.92 |
| O=C(c1cccc(CNCCNc2cccc(Cl)c2)c1)N1CCCCC1 [Example 20, (3-{[2-(3-Chloro-phenylamino)-ethylamino]-methyl}-phenyl)-piperidin-1-yl-methanone] | 5.51 |
| CC(C)c1ccccc1NCCNCc1cccc(C(=O)N2CCCCC2)c1 [Example 21, (3-{[2-(2-Isopropyl-phenylamino)-ethylamino]-methyl}-phenyl)-piperidin-1-yl-methanone] | 5.60 |
| COc1ccccc1-c1ccccc1NCCNCc1cccc(C(=O)N2CCCCC2)c1 [Example 22, (3-{[2-(2′-Methoxy-biphenyl-2-ylamino)-ethylamino]-methyl}-phenyl)-piperidin-1-yl-methanone] | < 5.00 |
| O=C(c1cccc(CNCCNc2ccccc2-c2ccsc2)c1)N1CCCCC1 [Example 23, Piperidin-1-yl-(3-{[2-(2-thiophen-3-yl-phenylamino)-ethylamino]-methyl}-phenyl)-methanone] | 6.02 |
| CC(C)Oc1ccccc1OCCNCc1cccc(C(=O)N2CCCCC2)c1 [Example 24, (3-{[2-(2-Isopropoxy-phenoxy)-ethylamino]-methyl}-phenyl)-piperidin-1-yl-methanone] | 6.40 |
| CC(C)Oc1ccccc1OCCCNCc1cccc(C(=O)N2CCCCC2)c1 [Example 25, (3-{[3-(2-Isopropoxy-phenoxy)-propylamino]-methyl}-phenyl)-piperidin-1-yl-methanone] | 6.40 |
| CC(C)Oc1cccc(OCCNCc2cccc(C(=O)N3CCCCC3)c2)c1 [Example 26, (3-{[2-(3-Isopropoxy-phenoxy)-ethylamino]-methyl}-phenyl)-piperidin-1-yl-methanone] | 5.12 |
| CC(C)Oc1ccccc1NCCN(C)Cc1cccc(C(=O)N2CCCCC2)c1 [Example 27, [3-({[2-(2-Isopropoxy-phenylamino)-ethyl]-methyl-amino}-methyl)-phenyl]-piperidinyl-methanone] | 4.96 |
| CC(C)Oc1ccccc1N(C)CCNCc1cccc(C(=O)N2CCCCC2)c1 [Example 28, [3-({2-[(2-Isopropoxy-phenyl)-methyl-amino]-ethylamino}-methyl)-phenyl]-piperidinyl-methanone] | 5.46 |
| CC(C)Oc1ccccc1N(C)CCN(C)Cc1cccc(C(=O)N2CCCCC2)c1 [Example 29, {3-[({2-[(2-Isopropoxy-phenyl)-methyl-amino]-ethyl}-methyl-amino)-methyl]-phenyl}-piperidin-1-yl-methanone] | < 5.00 |

From patent US7915420B2, “Aryl piperidine amides” (Janssen Pharmaceutica NV, priority 2003, dated 2011)
